Experiment in all cases: NCI-60 cell line screen, 48 h
Assay [1] has as its system HCT-15 colon.
For assay [2], the system named is HOP-92 NSCLC.
The subject of assay [3] is M14 melanoma.
Assay [4] relates to OVCAR-4 ovarian.
Assay [5] relates to PC-3 prostate.
The test system of assay [6] is RXF 393 renal.
In assay [7] the test system is SK-MEL-28 melanoma.
Assay [8] concerns SW-620 colon.
The test system of assay [9] is TK-10 renal.
For assay [10], the system named is UACC-62 melanoma.

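Briefly, cells in 96-well plates were exposed to five compound concentrations for 48 h, and endpoints were estimated by linear interpolation. Here, GI50 denotes the concentration required for 50% inhibition of growth. TGI: concentration producing complete growth inhibition.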

As to `CC1=NN(C(=O)c2ccncc2)C(=O)C1N=Nc1ccc2ccccc2c1` (stereo not given), the TGI in assay [1] was more than 100 µM; in assay [2], more than 100 µM; in [3], more than 96.2 µM; in [4] it was more than 100 µM; in assay [5] it was more than 100 µM; in assay [6] it was more than 100 µM. The TGI in assay [7], in assay [8], in assay [9] and in [10] was more than 100 µM each time.
For the compound `CC(=O)NC(CCCCN(Cc1ccccc1)C(=O)N(CCCl)N=O)C(=O)NCc1ccccc1` (stereo not given), the TGI was more than 100 µM in assay [1]; 68.6 µM in assay [2]; more than 71.5 µM in [3]; more than 100 µM in assay [4]; more than 100 µM in assay [5]; 51.3 µM in assay [6]. Further, the TGI in assay [7] was more than 100 µM; in assay [8] it was more than 70.7 µM; in assay [9] it was 73.9 µM; in assay [10], 36.5 µM.
`CC(=O)O[C@H]1C(=O)[C@@]2(C)[C@H]([C@H](OC(=O)c3ccccc3)[C@@]3(O)C[C@H](O)C(C)=C1C3(C)C)[C@]1(OC(C)=O)CO[C@@H]1C[C@@H]2O`: the TGI in assay [1] is more than 100 µM; in assay [2] it was more than 100 µM; in assay [3] it was 74.8 µM; in assay [4], more than 100 µM; in assay [5] it was more than 100 µM; in assay [6], more than 100 µM. The TGI in assay [7], in assay [8], in assay [9] and in assay [10] was more than 100 µM each time.
As for `COc1cc(-c2ccc(NC(=O)NC3CC3)c(OC)c2)ccc1NC(=O)NC1CC1`, the GI50 was 1.1 µM in assay [1]; 7.66 µM in assay [2]; more than 100 µM in assay [3]; more than 100 µM in assay [4]; 9.01 µM in assay [5]; 1.16 µM in assay [6]. Also, the GI50 in [7] is more than 29.3 µM; in assay [8], 5.39 µM; in [9], 13.9 µM; in [10], 5.71 µM. Also, the TGI was more than 100 µM in assay [1]; more than 67.7 µM in assay [2]; more than 100 µM in assay [3]; more than 100 µM in assay [4]; more than 100 µM in assay [5]; 4.42 µM in assay [6]. Further, the TGI in assay [7], in [8], in assay [9] and in [10] was more than 100 µM in each case.

(Values after PubChem BioAssay (NCI).)
